# Data from US7732487B2, “Method for treating a disease or condition responsive to opening of C1C-2 channel” (priority 2001, dated 2010).
# Marks after values point to notes of the source that are not given here.
# What was measured:
# male Wistar rats [1] = assay: Indomethacin induced ulcer model; format: in vivo, rat; conditions: for Ulcer Coefficient: Mean ± S.E.
# Procedure: (§1) Effects on acute ulcer was determined by means of water-immersion restraint stress induced ulcer model and indomethacin induced ulcer model.
# (§2) Test substance 1 was orally administered to male Wistar rats (weight: 180-210 g) that had been fasted for 24 hours. In the water-immersion restraint stress induced ulcer model, 10 minutes after the oral administration of test substance 1, the rats were bound in a stress cage and immersed in water at 23° C. up to the level of their chest xiphisternums. Six hours after the immersion, the animals were killed by cervical dislocation. In the indomethacin induced ulcer model, immediately after the oral administration of test substance 1 or 2, indomethacin 10 mg/kg was orally administered. Five hours after the administration, the animals were killed by cervical dislocation. The stomachs removed from the animals were fixed with 1% formalin and then dissected along the greater curvatures. The major axis (mm) of each ulcer formed in the stomach was measured. The major axes of the ulcers in each animal were totaled, which were expressed as ulcer coefficients. Based on the ulcer coefficients of the control group and those of the groups receiving test substances, the ulcer inhibitory rates were calculated.
# male Wistar rats [2] = assay: Amount of intestinal fluid and chloride ion concentration in intestinal fluid in rat; format: in vivo; conditions: 30 minutes after administration, Mean ± S.E.
# Procedure: Test substance 1: 13,14-dihydro-15-keto-16,16-difluoro-prostaglandin E1, which is a ClC-2 channel opener was used. The test substance 1 of 10 or 100 μg/kg in 5 mL/kg of the vehicle was orally administered to male Wistar rats (six weeks old, weight: 180-210 g) that had been fasted for at least 16 hours. The control group received the same volume of the vehicle (0.5% ethanol and 0.01% polysorbate 80 in distilled water). Thirty minutes after the administration, the animals underwent laparotomy under ether anesthesia. The first portion of the duodenum and end portion of the ileum were ligated respectively and the bowel was removed. The intestinal fluid of each animal was collected from the removed bowel and the amount was determined. After the intestinal fluid was centrifuged by 10,000×g for 5 minutes, its supernatant was collected. The chloride ion concentration in the supernatant was measured with a chloride counter (CL-7, Hiranuma Sangyo Co., Ltd.). Dunnett's test was used in comparing the control group and the test groups receiving test substance 1 in each dose. P values less than 0.05 were considered to be statistically significant.
# male Wistar rats [3] = assay: Water-immersion restraint stress induced ulcer model; format: in vivo, rat; conditions: for Ulcer Coefficient: Mean ± S.E.
# Procedure: as §1, §2
# male Wistar rats [4] = assay: Antipneumonedema effect, ammonium sulfate induced, in rats; format: in vivo, rat
# Procedure: Test substance 1 of 0.1 or 0.01 mg/kg in 5 mL/kg of vehicle was subcutaneously administered to male Wistar rats (7 weeks old, weight: 200-250 g). The control group received the same amount of the vehicle (physiological Saline). Thirty minutes after the administration, ammonium sulfate […] was administered to the abdominal cavity of the rats. The survival rate at 30 minutes after the administration of ammonium sulfate was calculated. Animals that had survived until 30 minutes after the administration of ammonium sulfate were killed under chloroform, and their lungs were removed to measure the weights. Regarding animals that had been dead by 30 minutes after the administration of ammonium sulfate, their lungs were removed immediately after their death to measure the weights. The lung-weight of the respective groups was compared to the lung-weight of the normal group, which received no ammonium sulfate. Based on the lung-weight measurements, the inhibitory rate of lung-weight increase of the group receiving test substance 1 as compared to that of the control group was calculated.
# ddY male mice = assay: Antianoxia effect: duration of gasping after beheading in mice; format: in vivo, mouse; conditions: 0.3 mg/kg subcutaneous, 30 minutes before beheading, Mean ± S.D.
# Procedure: Test substance 1 of 0.3 mg/kg in 10 mL/kg of vehicle was subcutaneously administered to ddY male mice (5 weeks old, weight: 27-30 g). The control group received the vehicle. Thirty minutes after the administration, the mice were beheaded with guillotine. Duration of gasping shown after beheading was measured.
# male white rabbit = assay: Amount of lacrimal fluid and chloride ion concentration in lacrimal fluid in rabbit; format: in vivo; conditions: 0.001% eye drop, 30 μL/eye, two hours after instillation, Mean ± S.E.
# Procedure: An eye drop composition comprising 0.001% of the test substance 1 was instilled to male white rabbit in the amount of 30 μL/eye. The control group received the same amount of eye drop vehicle. […] Then the amount of lacrimal fluid was measured from the length of wetting area on the paper filter with the scale on it. […] The collected lacrimal fluid was diluted five fold with distilled water and chloride ion concentration in the lacrimal fluid was measured with a chloride counter (CL-7, Hiranuma Sangyo Co. Ltd., Japan). Student's t-test and Wilcoxon's test were used in comparing the control group and the group receiving test substance 1. P values less than 0.05 were considered to be statistically significant.
# removed liver [5] = assay: Organ preservation: bile flow after 16-hour cold storage and reperfusion of rat liver; conditions: 30 minutes after reperfusion, Mean ± S.D.
# Procedure: Male Wistar rats (weight: about 280 g) were anesthetized with intraperitoneal injection of pentobarbital sodium (50 mg/kg) and hepatic-portal region was exposed by abdominal midline incision. The common bile duct was cannulated and the portal stem was inserted with a 19 gauge Surflo® needle equipped with a three way stopcock. […] The liver was cut off from the tissues around it, removed outside the body and subjected to extracorporeal perfusion. The liver was subjected to a 15-minute pre-perfusion until its oxygen consumption achieved to a constant state. Then the perfusate was replaced with an organ preservative solution (University of Wisconsin solution; (U-W solution) at 4° C. Immediately after the replacement was completed, the liver connected with the three-way stopcock was removed from the perfusion cycle and the inlet was clamped. Then the liver was put in the preservative solution (U-W solution) at the same temperature and stored for 16 hours. After the 16-hour storage, the liver was reperfused with Krebs-Ringer Buffer. Thirty minutes after the reperfusion, the amount of bile flow was measured. (1) Effect of substance 2 added to the organ preservative solution (U-W solution) In the above perfusion protocol, test substance 2 at the concentration of 10 μM was added to the preservative solution (U-W solution). […]
# male Wistar rats [6] = assay: Mercuric chloride induced large intestinal ulcer; format: in vivo, rat; conditions: for Gross Ulcer Area: 30 min before and 2 and 6 hours after HgCl2, Mean ± S.E.
# Procedure: Mercuric chloride (HgCl2) of 4 mg/kg was intramuscularly administered to male Wistar rats (weight: 245-290 g) to induce ulcer in the large intestine. Thirty minutes before, and 2 and 6 hours after the administration of HgCl2, test substance 2 was subcutaneously administered. The control group received a vehicle. Twenty-four hours after the administration of HgCl2, the animals were bled to death under ether anesthesia. After abdominal incision, the upper portion of the ileocecal opening and the upper portion of the anus were ligated, and the large intestine region from the caecum to the rectum was removed. The removed large intestine was fixed with 1% formalin and then dissected, and the major and minor axes of ulcer were measured with a caliper under a stereoscopic microscope. The product of the major axis multiplied by the minor axis was expressed as the ulcer area. Further, the total ulcer area was calculated in each animal, which was expressed as the gross ulcer area.
# removed liver [7] = assay: Bile amount and chloride ion in bile of removed perfused rat liver; conditions: 10 μM in Krebs-Ringer perfusate, 30 minutes, Mean ± S.E.
# Procedure: Male Wistar rats were used. The common bile duct of both the test and the control groups were catheterized to collect bile under pentobarbital sodium anesthesia. After the catheter was inserted and fixed in the portal vein, Krebs-Ringer solution (pH 7.4, 37° C.) comprising sodium taurocolate (30 μmol/1) saturated with 95% O2 and 5% CO2 was infused at a constant flow rate of 4.0 mL/min/g liver weight by means of peristaltic pump. The liver was removed under perfusion. For the test group, test substance 2 was added to the Krebs-Ringer solution. Thirty minutes after the perfusion, the amount of bile of both the test group and the control group was measured. Chloride ion concentration in the bile was also measured. The amount of bile at 30 minutes after the administration of test substance 2 or vehicle was shown as relative value (%) to the amount immediately before the administration.
# male Wistar rats [8] = assay: Taurocholic acid and trypsin induced pancreatitis, serum amylase; format: in vivo, rat; conditions: 100 μg/kg subcutaneous
# Procedure: Male Wistar rats (weight: 240-270 g) that had been fasted overnight were subjected to abdominal incision under pentobarbital sodium anesthesia. Then a mixed solution of 10% taurocholic acid 3 mL and 0.3% trypsin solution 0.3 mL was antidroicly infused from the bile duct duodenum opening to induce pancreatitis. Thirty minutes before, and 2 and 4 hours after the infusion of the mixed solution of taurocholic acid and trypsin, test substance 2 was subcutaneously administered. The control group received the vehicle. Six hours after the infusion of the mixed solution of taurocholic acid and trypsin, the blood was collected to measure the serum amylase activity.
# male Wistar rats [9] = assay: Amount of bile and chloride ion concentration in bile in rats after repeated oral dosing; format: in vivo, rat; conditions: 100 μg/kg oral three times a day for seven days, Mean ± S.E.
# Procedure: Test substance 2: 13,14-dihydro-15-keto-16,16-difluoro-18(S)-methyl-prostaglandin E1, which is a ClC-2 channel opener was used. Test substance 2 of 100 μg/kg was orally administered to male Wistar rats (six weeks old, weight: 180-210 g) three times a day for seven days. The control group received the same amount of the vehicle (0.01% polysorbate 80 and 0.5% ethanol in distilled water). In the following morning of the final administration day (about 17 hours after the final administration), a polyethylene catheter (PE10, Becton Dickinson and Company) was inserted into the rats' common bile duct under ether anesthesia. The rats were placed in a Borrmann's cage and were left for 1 hour to awake from anesthesia. Bile discharged during one hour from one to two hours after the insertion of the catheter was collected to measure the amount of bile. Chloride ion concentration was measured with a chloride counter (CL-7, Hiranuma Sangyo Co., Ltd.). Student's t-test was used in comparing the control group and the group receiving test substance 2. P values less than 0.05 were considered to be statistically significant.
# Beagle dogs = assay: Cardiac output in dog model of cardiac incompetence; format: in vivo; conditions: 30 minutes after administration relative to immediately before, Mean ± S.E.
# Procedure: Beagle dogs (weight: 8.8-10.3 kg) were used, and under thiopental sodium and α-chloralose anesthesia, their cardiac output was guided from a FJ probe equipped on the aortic arch via a rectangular wave electromagnetic blood flow meter (MFV-3100, Nihon Koden) to a blood flow-indicating unit and recorded in a recorder. The model of cardiac incompetence was prepared in accordance with the following method. A continuous infusion of lactate Ringer solution (5 mL/body/min) having dissolved therein DL-propranolol (0.06 mg/mL) from a catheter inserted into the left femoral vein started diastolic overload. Thirty minutes later, the left anterior descendence (LAD) was ligated. […] At the time the cardiac output was reduced by at least 20% from that before the diastolic overload, the dose of methoxamine was reduced to 5 μg/kg/min and the infusion of lactate Ringer solution was reduced to 3 mL/kg/min, which was continued until the completion of experiments. Sixty to 90 minutes after the cardiac output was reduced by at least 20% and other hemodynamic parameters were stabled, test substance 2 was administered via a cannula indwelled in the duodenum. The control group received a vehicle. […]
compound,measurement,setting,value
"CCCCC(F)(F)C(=O)CC[C@H]1[C@H](O)CC(=O)[C@@H]1CCCCCCC(=O)O [Test Sub. 1, 13,14-dihydro-15-keto-16,16-difluoro-prostaglandin E1]",Ulcer Inhibitory Rate,male Wistar rats [1]; 2 μg/kg oral,44%
same,Ulcer Coefficient,male Wistar rats [1]; 2 μg/kg oral,27.9 ± 5.1
same,Amount of Intestinal Fluid,male Wistar rats [2]; 10 μg/kg oral,3.3 ± 0.3 mL
same,Chloride Ion Concentration in Intestinal Fluid,male Wistar rats [2]; 10 μg/kg oral,110.1 ± 5.6 mEq/L
same,Amount of Intestinal Fluid,male Wistar rats [2]; 100 μg/kg oral,5.3 ± 0.2 mL
same,Chloride Ion Concentration in Intestinal Fluid,male Wistar rats [2]; 100 μg/kg oral,126.6 ± 2.4 mEq/L
same,Ulcer Inhibitory Rate,male Wistar rats [3]; 30 μg/kg oral,54.3%
same,Ulcer Coefficient,male Wistar rats [3]; 30 μg/kg oral,13.4 ± 2.0
same,Ulcer Inhibitory Rate,male Wistar rats [3]; 100 μg/kg oral,85.3%
same,Ulcer Coefficient,male Wistar rats [3]; 100 μg/kg oral,4.3 ± 1.9
same,Inhibitory Rate of Lung-weight Increase,"male Wistar rats [4]; 0.01 mg/kg subcutaneous, compared to control group",47%
same,Surviving Rate,"male Wistar rats [4]; 0.1 mg/kg subcutaneous, 30 minutes after ammonium sulfate",60%
same,Duration of Gasping,ddY male mice,24.1 ± 1.9
same,Chloride Ion Concentration in Lacrimal Fluid,male white rabbit,152.9 ± 7.7^(##) mEq/L
same,Amount of Lacrimal Fluid,male white rabbit; Schirmer's Paper,11.5 ± 0.7 mL
"CC[C@H](C)CC(F)(F)C(=O)CC[C@H]1[C@H](O)CC(=O)[C@@H]1CCCCCCC(=O)O [Test Sub. 2, 13,14-dihydro-15-keto-16,16-difluoro-18(S)-methyl-prostaglandin E1]",Amount of Bile Flow,removed liver [5]; 10 μM added to the perfusate during reperfusion,2.67 ± 0.31 μL/min/g liver
same,Amount of Bile Flow,removed liver [5]; 10 μM added to the preservative solution (U-W solution),2.43 ± 0.10 μL/min/g liver
same,Ulcer Inhibitory Rate,male Wistar rats [6]; 10 μg/kg subcutaneous,54.3%
same,Gross Ulcer Area,male Wistar rats [6]; 10 μg/kg subcutaneous,15.2 ± 15.8 mm^2
same,Ulcer Inhibitory Rate,male Wistar rats [6]; 1000 μg/kg subcutaneous,85.3%
same,Gross Ulcer Area,male Wistar rats [6]; 1000 μg/kg subcutaneous,3.7 ± 8.3** mm^2
same,Chloride Ion Concentration in Bile,removed liver [7],0.353 ± 0.009 μM/min/g liver
same,Relative Amount of Bile,removed liver [7]; relative to amount immediately before administration,126.2 ± 9.0 %
same,serum amylase,"male Wistar rats [8]; 30 min before and 2 and 4 hours after infusion, blood at six hours, Mean ± S.E.",2430 ± 417 IU/L
same,Inhibitory Rate,male Wistar rats [8]; serum amylase,22.6%
same,Ulcer Inhibitory Rate,male Wistar rats [1]; 1 μg/kg oral,58.7%
same,Ulcer Coefficient,male Wistar rats [1]; 1 μg/kg oral,35.7 ± 8.3
same,Ulcer Inhibitory Rate,male Wistar rats [1]; 3 μg/kg oral,65.3%
same,Ulcer Coefficient,male Wistar rats [1]; 3 μg/kg oral,30.0 ± 4.6
same,Ulcer Inhibitory Rate,male Wistar rats [1]; 10 μg/kg oral,77.2%
same,Ulcer Coefficient,male Wistar rats [1]; 10 μg/kg oral,19.7 ± 4.8
same,Chloride Ion Concentration in Bile,male Wistar rats [9],98.4 ± 1.8 mEq/L
same,Amount of Bile,male Wistar rats [9]; bile collected during one hour,492 ± 36.7 µL
same,Relative Cardiac Output,Beagle dogs; 100 μg/kg intraduodenal,108.7 ± 0.47 %
same,Relative Cardiac Output,Beagle dogs; 300 μg/kg intraduodenal,117.8 ± 2.42 %
